Test results published in patent US5612329A (priority 1995, dated 1997).

Assays:
CCRF-CEN cells = assay: In vitro cytotoxicity / cell growth inhibition, leukemia; assay type: cell-based; settings: Homo sapiens, 48 hr, read-out: log10 G150 (converted)
Method: (§1) The anti-proliferative activities of the aziridinylpolyamines obtained in Synthesis Examples 1-4 were assessed by determining log10 G150 values against human cancer cell lines using the screening strategy described by Boyd et al, Drug Devel. Res. 34:91-109 (1995).
(§2) More specifically, the compounds were tested at a minimum of five concentrations at 10-fold dilutions using a 48 hr continuous exposure protocol. Each cell line shown in Table 1 below was inoculated onto microtiter plates. After a pre-incubation period of 24-48 hr at 37° C., the test compounds were added, and the culture was incubated for an additional 48 hr at 37° C. Cell viability or cell growth end-point determinations were performed by fixation of the cells, followed by staining with sulforhodamine B (Monks et al, J. Natl. Cancer Inst., 83:757-766 (1991)).

K-562 cells = assay: as above; assay type: cell-based; settings: Homo sapiens, K562; K-562, leukemia, 48 hr; read-out: log10 G150 (converted)
Method: as §1, §2

MOLT-4 cells = assay: as above; assay type: cell-based; settings: Homo sapiens; MOLT-4, leukemia, 48 hr; read-out: log10 G150 (converted)
Method: as §1, §2

RPMI-8226 cells = assay: as above; assay type: cell-based; settings: Homo sapiens; RPMI-8226, leukemia, 48 hr; read-out: log10 G150 (converted)
Method: as §1, §2

SR cells = assay: as above; assay type: cell-based; settings: Homo sapiens, 48 hr, read-out: log10 G150 (converted)
Method: as §1, §2

HL-60 (TB) cells = assay: cells; assay type: cell-based; settings: Homo sapiens, leukemia, 48 hr, read-out: log10 G150 (converted)
HCT-116 cells = assay: In vitro cytotoxicity / cell growth inhibition, colon cancer; assay type: cell-based; settings: Homo sapiens; HCT-116, colon cancer, 48 hr; read-out: log10 G150 (converted)
Method: as §1, §2

HCT-15 cells = assay: as above; assay type: cell-based; settings: Homo sapiens; HCT-15, colon cancer, 48 hr; read-out: log10 G150 (converted)
Method: as §1, §2

SF-268 cells = assay: In vitro cytotoxicity / cell growth inhibition, CNS cancer; assay type: cell-based; settings: Homo sapiens; SF-268, CNS cancer, 48 hr; read-out: log10 G150 (converted)
Method: as §1, §2

SF-295 cells = assay: as above; assay type: cell-based; settings: Homo sapiens; SF-295, CNS cancer, 48 hr; read-out: log10 G150 (converted)
Method: as §1, §2

SF-539 cells = assay: as above; assay type: cell-based; settings: Homo sapiens; SF-539, CNS cancer, 48 hr; read-out: log10 G150 (converted)
Method: as §1, §2

SNB-19 cells = assay: as above; assay type: cell-based; settings: Homo sapiens; SNB-19, CNS cancer, 48 hr; read-out: log10 G150 (converted)
Method: as §1, §2

SNB-75 cells = assay: as above; assay type: cell-based; settings: Homo sapiens; SNB-75, CNS cancer, 48 hr; read-out: log10 G150 (converted)
Method: as §1, §2

U251 cells = assay: as above; assay type: cell-based; settings: Homo sapiens, U-251, 48 hr, read-out: log10 G150 (converted)
Method: as §1, §2

L1210 murine leukemia = assay: In vivo testing in mice bearing L1210 leukemia; set-up: species or system female CD2 F1 mice; settings: for LD20: footnote e
Source text: Virus-free, adult female CD2 F1 mice were obtained from the Animal Genetics and Production Branch of the National Cancer Institute. To minimize exogenous infection, mice were housed in microisolator caging and handled in accordance with the NIH Guide for the care and use of laboratory animals (NIH No. 85-23, 1985). The mice were randomized to groups of 5 mice per group, except titration groups which consisted of 10 mice per group, and the untreated control group which consisted of 20 mice.
On day 0, the mice were inoculated intraperitoneally with 1.0×10^5 L1210 mouse leukemia cells/mouse for the treatment and control groups. The titration groups received 1.0×10^4 to 1.0×10^6 L1210 cells/mouse.
Dosing solutions were freshly prepared just prior to treatment by dissolving 1,12-diaziridinyl-4,9-diazadodecane in 25 mM sodium phosphate buffer (pH 7.4), giving concentrations of 0.18-0.6 mg/ml.
Beginning on day 1, dosing solutions were administered intravenously by tail vein at 0.01 ml/g of body weight. The doses of 1,12-diaziridinyl-4,9-diazadodecane were 6.0, 4.0, 2.7, and 1.8 mg/kg. The dosing schedule was: a single dose on day 1; 3 doses every four days beginning on day 1; 2 doses every seven days beginning on day 1; or 2 doses on days 1 and 2.
Percent increase in lifespan was calculated using the formula, (T-C/C)·100, where T is the median day of death for the various treatment groups, and C is the median day of death for the control group.
The net log cell kill is an estimate of the number of cells that are killed by the drug at each specific dose and schedule, and was calculated by the formula, ((T-C)-Duration of Treatment)·0.3/Tumor Doubling Time.

C(CCNCCCN1CC1)CNCCCN1CC1 [Synthesis Example 1, 1,12-Diaziridinyl-4,9-diazadodecane]
GI50 (CCRF-CEN cells): 63.1 nM | GI50 (K-562 cells): 4.37 µM | GI50 (MOLT-4 cells): 44.7 nM | GI50 (RPMI-8226 cells): 5.13 µM | GI50 (SR cells): 18.2 nM | GI50 (HL-60 (TB) cells): 35.5 nM | GI50 (HCT-116 cells): 1260 nM | GI50 (HCT-15 cells): 11.5 µM | GI50 (SF-268 cells): 148 nM | GI50 (SF-295 cells): 155 nM | GI50 (SF-539 cells): 37.2 nM | GI50 (SNB-19 cells): 1120 nM | GI50 (SNB-75 cells): 27.5 nM | GI50 (U251 cells): 417 nM | Net log cell kill (NLCK) (L1210 murine leukemia; 1.8 mg/kg i.v. on day 1): 4 | Percent increase in life span (% ILS) (L1210 murine leukemia; 1.8 mg/kg i.v. on day 1): 57% | Survival (median day of death) (L1210 murine leukemia; 1.8 mg/kg i.v. on day 1): 11 days | Net log cell kill (NLCK) (L1210 murine leukemia; 1.8 mg/kg i.v. on days 1, 2): 6 | Percent increase in life span (% ILS) (L1210 murine leukemia; 1.8 mg/kg i.v. on days 1, 2): 100% | Survival (median day of death) (L1210 murine leukemia; 1.8 mg/kg i.v. on days 1, 2): 14 days | Net log cell kill (NLCK) (L1210 murine leukemia; 1.8 mg/kg i.v. on days 1, 5, 9): 2 | Percent increase in life span (% ILS) (L1210 murine leukemia; 1.8 mg/kg i.v. on days 1, 5, 9): 143% | Survival (median day of death) (L1210 murine leukemia; 1.8 mg/kg i.v. on days 1, 5, 9): 17 days | Net log cell kill (NLCK) (L1210 murine leukemia; 1.8 mg/kg i.v. on days 1, 8): -1 | Percent increase in life span (% ILS) (L1210 murine leukemia; 1.8 mg/kg i.v. on days 1, 8): 86% | Survival (median day of death) (L1210 murine leukemia; 1.8 mg/kg i.v. on days 1, 8): 13 days | Net log cell kill (NLCK) (L1210 murine leukemia; 2.7 mg/kg i.v. on day 1): 3 | Percent increase in life span (% ILS) (L1210 murine leukemia; 2.7 mg/kg i.v. on day 1): 42% | Survival (median day of death) (L1210 murine leukemia; 2.7 mg/kg i.v. on day 1): 10 days | Net log cell kill (NLCK) (L1210 murine leukemia; 2.7 mg/kg i.v. on days 1, 2): 6 | Percent increase in life span (% ILS) (L1210 murine leukemia; 2.7 mg/kg i.v. on days 1, 2): 100% | Survival (median day of death) (L1210 murine leukemia; 2.7 mg/kg i.v. on days 1, 2): 14 days | Net log cell kill (NLCK) (L1210 murine leukemia; 2.7 mg/kg i.v. on days 1, 5, 9): 4 | Percent increase in life span (% ILS) (L1210 murine leukemia; 2.7 mg/kg i.v. on days 1, 5, 9): 171% | Survival (median day of death) (L1210 murine leukemia; 2.7 mg/kg i.v. on days 1, 5, 9): 19 days | Net log cell kill (NLCK) (L1210 murine leukemia; 2.7 mg/kg i.v. on days 1, 8): 2 | Percent increase in life span (% ILS) (L1210 murine leukemia; 2.7 mg/kg i.v. on days 1, 8): 129% | Survival (median day of death) (L1210 murine leukemia; 2.7 mg/kg i.v. on days 1, 8): 16 days | Net log cell kill (NLCK) (L1210 murine leukemia; 4.0 mg/kg i.v. on day 1): 4 | Percent increase in life span (% ILS) (L1210 murine leukemia; 4.0 mg/kg i.v. on day 1): 57% | Survival (median day of death) (L1210 murine leukemia; 4.0 mg/kg i.v. on day 1): 11 days | Net log cell kill (NLCK) (L1210 murine leukemia; 4.0 mg/kg i.v. on days 1, 2): -3 | Percent increase in life span (% ILS) (L1210 murine leukemia; 4.0 mg/kg i.v. on days 1, 2): -29% | Survival (median day of death) (L1210 murine leukemia; 4.0 mg/kg i.v. on days 1, 2): 5 days | Net log cell kill (NLCK) (L1210 murine leukemia; 4.0 mg/kg i.v. on days 1, 5, 9): -7 | Percent increase in life span (% ILS) (L1210 murine leukemia; 4.0 mg/kg i.v. on days 1, 5, 9): 14% | Survival (median day of death) (L1210 murine leukemia; 4.0 mg/kg i.v. on days 1, 5, 9): 8 days | Net log cell kill (NLCK) (L1210 murine leukemia; 4.0 mg/kg i.v. on days 1, 8): 4 | Percent increase in life span (% ILS) (L1210 murine leukemia; 4.0 mg/kg i.v. on days 1, 8): 157% | Survival (median day of death) (L1210 murine leukemia; 4.0 mg/kg i.v. on days 1, 8): 18 days | Net log cell kill (NLCK) (L1210 murine leukemia; 6.0 mg/kg i.v. on day 1): -1 | Percent increase in life span (% ILS) (L1210 murine leukemia; 6.0 mg/kg i.v. on day 1): -14% | Survival (median day of death) (L1210 murine leukemia; 6.0 mg/kg i.v. on day 1): 6 days | LD20 (L1210 murine leukemia; i.v. on day 1): 4.0 mg/kg | LD20 (L1210 murine leukemia; i.v. on days 1, 2): 2.7 mg/kg | LD100 (L1210 murine leukemia; i.v. on days 1, 2, footnote f): 4.0 mg/kg | LD20 (L1210 murine leukemia; i.v. on days 1, 5, 9): 4.0 mg/kg | LD20 (L1210 murine leukemia; i.v. on days 1, 8): 4.0 mg/kg | increase in the life span (L1210 murine leukemia; i.v., doses of less than 2.7 mg/kg, days 1, 5, and 9): significant increase in the life span
